Data reported in patent publication US20220213047A1, “CARBONIC ANHYDRASE INHIBITORS FOR TREATMENT OF NEISSERIA GONORRHOEAE INFECTION” (Purdue Research Foundation, priority 2021, published 2022).
Converted amounts (≈) assume the structure as drawn. “Also recorded” adds a separate entry of the source. Where two headings read alike, the source gives them in different places.

Assays:
N. gonorrhoeae [1] = test: Checkerboard assay, synergy with AZI; assay type: cell-based; settings: combination with AZI, standard checkerboard assay
Description: CAIs work synergistically with approved antibiotics—Dual therapy with ceftriaxone and azithromycin is the recommended approach to treat infections caused by N. gonorrhoeae. The use of two antibiotics in conjunction is thought to curb the rapid emergence of resistance to either antibiotic, if used alone. Thus, we investigated the potential of CAIs to be used in combination with other antibiotics against N. gonorrhoeae^56 (FIG. 5).

N. gonorrhoeae [2] = test: MIC by agar dilution on a larger panel of N. gonorrhoeae strains; assay type: cell-based, Neisseria gonorrhoeae; settings: for MIC: Neisseria gonorrhoeae, read-out: MIC
Description: These tests were performed in normal culture conditions with standard CO2 levels and in CO2 (5% in incubator) conditions.

CCOc1ccc2nc(S(N)(=O)=O)sc2c1 [Ethoxzolamide]
FIC (N. gonorrhoeae [1]): 0.240
activity against N. gonorrhoeae under CO2 conditions (N. gonorrhoeae [2]; CO2 conditions versus standard conditions, listed as EZM): did not maintain any activity; also recorded: significant reduction of activity
MIC (N. gonorrhoeae [2]; N. gonorrhoeae 165, CO2 (5% CO2 containing air)): > 128 mg/L
MIC (N. gonorrhoeae [2]; N. gonorrhoeae 166, CO2 (5% CO2 containing air)): > 128 mg/L
MIC (N. gonorrhoeae [2]; N. gonorrhoeae 166, Non CO2 (ambient air)): 0.06 mg/L (≈ 0.232 µM)
MIC (N. gonorrhoeae [2]; N. gonorrhoeae 167, CO2 (5% CO2 containing air)): 64 mg/L (≈ 248 µM)
MIC (N. gonorrhoeae [2]; N. gonorrhoeae 167, Non CO2 (ambient air)): 0.25 mg/L (≈ 0.968 µM)
MIC (N. gonorrhoeae [2]; N. gonorrhoeae 170, CO2 (5% CO2 containing air)): > 128 mg/L
MIC (N. gonorrhoeae [2]; N. gonorrhoeae 170, Non CO2 (ambient air)): 0.06 mg/L (≈ 0.232 µM)
MIC (N. gonorrhoeae [2]; N. gonorrhoeae 171, CO2 (5% CO2 containing air)): 64 mg/L (≈ 248 µM)
MIC (N. gonorrhoeae [2]; N. gonorrhoeae 173, CO2 (5% CO2 containing air)): 128 mg/L (≈ 496 µM)
MIC (N. gonorrhoeae [2]; N. gonorrhoeae 174, CO2 (5% CO2 containing air)): > 128 mg/L
MIC (N. gonorrhoeae [2]; N. gonorrhoeae 175, CO2 (5% CO2 containing air)): > 128 mg/L
MIC (N. gonorrhoeae [2]; N. gonorrhoeae 175, Non CO2 (ambient air)): 0.25 mg/L (≈ 0.968 µM)
MIC (N. gonorrhoeae [2]; N. gonorrhoeae 176, CO2 (5% CO2 containing air)): 128 mg/L (≈ 496 µM)
MIC (N. gonorrhoeae [2]; N. gonorrhoeae 176, Non CO2 (ambient air)): 0.25 mg/L (≈ 0.968 µM)
MIC (N. gonorrhoeae [2]; N. gonorrhoeae 177, CO2 (5% CO2 containing air)): 16 mg/L (≈ 61.9 µM)
MIC (N. gonorrhoeae [2]; N. gonorrhoeae 177, Non CO2 (ambient air)): 0.5 mg/L (≈ 1.94 µM)
MIC (N. gonorrhoeae [2]; N. gonorrhoeae 178, CO2 (5% CO2 containing air)): > 128 mg/L
MIC (N. gonorrhoeae [2]; N. gonorrhoeae 178, Non CO2 (ambient air)): 0.06 mg/L (≈ 0.232 µM)
MIC (N. gonorrhoeae [2]; N. gonorrhoeae 179, CO2 (5% CO2 containing air)): > 128 mg/L
MIC (N. gonorrhoeae [2]; N. gonorrhoeae 179, Non CO2 (ambient air)): 0.25 mg/L (≈ 0.968 µM)
MIC (N. gonorrhoeae [2]; N. gonorrhoeae 180, CO2 (5% CO2 containing air)): > 128 mg/L
MIC (N. gonorrhoeae [2]; N. gonorrhoeae 181, CO2 (5% CO2 containing air)): 64 mg/L (≈ 248 µM)
MIC (N. gonorrhoeae [2]; N. gonorrhoeae 181, Non CO2 (ambient air)): 0.25 mg/L (≈ 0.968 µM)
MIC (N. gonorrhoeae [2]; N. gonorrhoeae 182, CO2 (5% CO2 containing air)): 64 mg/L (≈ 248 µM)
MIC (N. gonorrhoeae [2]; N. gonorrhoeae 182, Non CO2 (ambient air)): 0.25 mg/L (≈ 0.968 µM)
MIC (N. gonorrhoeae [2]; N. gonorrhoeae 183, CO2 (5% CO2 containing air)): 32 mg/L (≈ 124 µM)
MIC (N. gonorrhoeae [2]; N. gonorrhoeae 184, CO2 (5% CO2 containing air)): 32 mg/L (≈ 124 µM)
MIC (N. gonorrhoeae [2]; N. gonorrhoeae 184, Non CO2 (ambient air)): 0.25 mg/L (≈ 0.968 µM)
MIC (N. gonorrhoeae [2]; N. gonorrhoeae 185, CO2 (5% CO2 containing air)): 64 mg/L (≈ 248 µM)
MIC (N. gonorrhoeae [2]; N. gonorrhoeae 186, CO2 (5% CO2 containing air)): 64 mg/L (≈ 248 µM)
MIC (N. gonorrhoeae [2]; N. gonorrhoeae 188, CO2 (5% CO2 containing air)): 64 mg/L (≈ 248 µM)
MIC (N. gonorrhoeae [2]; N. gonorrhoeae 188, Non CO2 (ambient air)): 0.06 mg/L (≈ 0.232 µM)
MIC (N. gonorrhoeae [2]; N. gonorrhoeae 191, CO2 (5% CO2 containing air)): > 128 mg/L
MIC (N. gonorrhoeae [2]; N. gonorrhoeae 191, Non CO2 (ambient air)): 0.06 mg/L (≈ 0.232 µM)
MIC (N. gonorrhoeae [2]; N. gonorrhoeae 193, CO2 (5% CO2 containing air)): 64 mg/L (≈ 248 µM)
MIC (N. gonorrhoeae [2]; N. gonorrhoeae 194, CO2 (5% CO2 containing air)): 64 mg/L (≈ 248 µM)
MIC (N. gonorrhoeae [2]; N. gonorrhoeae 194, Non CO2 (ambient air)): 0.25 mg/L (≈ 0.968 µM)
MIC (N. gonorrhoeae [2]; N. gonorrhoeae 196, CO2 (5% CO2 containing air)): > 128 mg/L
MIC (N. gonorrhoeae [2]; N. gonorrhoeae 197, CO2 (5% CO2 containing air)): 128 mg/L (≈ 496 µM)
MIC (N. gonorrhoeae [2]; N. gonorrhoeae 197, Non CO2 (ambient air)): 0.25 mg/L (≈ 0.968 µM)
MIC (N. gonorrhoeae [2]; N. gonorrhoeae 198, CO2 (5% CO2 containing air)): > 128 mg/L
MIC (N. gonorrhoeae [2]; N. gonorrhoeae 198, Non CO2 (ambient air)): 0.25 mg/L (≈ 0.968 µM)
MIC (N. gonorrhoeae [2]; N. gonorrhoeae 200, CO2 (5% CO2 containing air)): > 128 mg/L
MIC (N. gonorrhoeae [2]; N. gonorrhoeae 200, Non CO2 (ambient air)): 0.25 mg/L (≈ 0.968 µM)
